# Structures can show the parent of a compound that is named as a salt.
# Columns and labels:
# β-adrenergic receptor = target: T1, β-adrenergic receptor (Cavia porcellus, UniProt H0W3H1); test: β-Adrenergic receptor blocking activity in vitro, isolated guinea pig atria preparation, isoproterenol as agonist; type: cell-based; conditions: isolated guinea pig atria (increase in rate), read-out: pA2 β (converted)
# T1 construct: isolated guinea pig atria preparation; from tissue; host or cells: guinea pig atria
# T1 sequence (H0W3H1 1-470): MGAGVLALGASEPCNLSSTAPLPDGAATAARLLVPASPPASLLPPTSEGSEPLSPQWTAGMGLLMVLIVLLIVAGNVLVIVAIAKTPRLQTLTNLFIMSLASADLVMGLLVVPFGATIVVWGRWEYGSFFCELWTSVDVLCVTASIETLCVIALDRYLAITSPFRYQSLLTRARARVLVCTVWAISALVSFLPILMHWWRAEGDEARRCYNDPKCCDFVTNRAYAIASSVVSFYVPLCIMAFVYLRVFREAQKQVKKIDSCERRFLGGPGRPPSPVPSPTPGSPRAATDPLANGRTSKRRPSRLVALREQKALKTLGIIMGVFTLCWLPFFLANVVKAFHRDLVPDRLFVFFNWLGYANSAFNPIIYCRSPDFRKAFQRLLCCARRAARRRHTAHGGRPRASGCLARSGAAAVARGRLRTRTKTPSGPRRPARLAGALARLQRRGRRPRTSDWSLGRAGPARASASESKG
# Protocol: (§1) The following Example is illustrative of the α and β-adrenergic blocking activity and the direct spasmolytic activity for the compounds of this invention.
# β-Adrenergic receptor blocking activity is determined in vitro by performing cumulative dose-response experiments in the isolated guinea pig atria preparation using isoproterenol as the agonist. The response (increase in rate) of the guinea pig atria preparation in the presence of logarithmically increasing concentrations of the compounds being tested are expressed as percent of the maximal attainable response. Relative antagonistic potency is expressed as a pA2 value, as defined above.
# α-adrenergic receptor = test: α-Adrenergic receptor blocking activity in vitro, isolated rabbit aortic strip preparation, norepinephrine as agonist; type: cell-based
# Protocol: as §1
# α-Adrenergic receptor blocking activity is determined in vitro by performing cumulative dose-response experiments in the isolated rabbit aortic strip preparation using norepinephrine as the agonist. The contractile response of the rabbit strip preparation in the presence of logarithmically increasing concentrations of the compounds being tested are expressed as percent of the maximal attainable response. Relative antagonistic potency is expressed as a pA2 value.
# [1] = system: isolated guinea pig ileum preparation; test: Direct spasmolytic activity in vitro, isolated guinea pig ileum preparation, barium chloride as agonist; type: cell-based
# Protocol: as §1
# Direct spasmolytic activity is determined in vitro by performing cumulative dose response experiments in the isolated guinea pig ileum preparation using barium chloride as the agonist. The contractile response of the guinea pig ileum preparation in the presence of logarithmically increasing concentrations of the compounds being tested are expressed as percent of the maximal attainable response. Relative antagonistic potency is expressed as a pA2 value, as defined above.
# [2] = system: spontaneously hypertensive rats (SHR); test: Antihypertensive activity in spontaneously hypertensive rats (SHR), systolic blood pressure; type: in vivo, rat (SHR, Okomoto-Aoki strain); conditions: oral 50 mg/kg
# Protocol: The following Example illustrates the antihypertensive activity for the compounds of this invention. Antihypertensive activity is determined in spontaneously hypertensive rats (SHR) of the Okomoto-Aoki strain. Systolic blood pressure of the SHR is measured from the caudal artery by means of an indirect method utilizing a photocell transducer/tail cuff occluder system. Time response relationships are determined for each compound following an oral dose of 50 mg/kg. Data are expressed as mm of Hg decrease from control values. Statistical significance is determined using a 2 tailed "t" test comparing drug treatment response values to those obtained from concurrent vehicle treated animals.
Compound,Kb (β-adrenergic receptor),pA2 α (α-adrenergic receptor),pA2 BaCl2 (Direct Spasmolytic Activity) [1],lowers blood pressure (decrease from control values) ([2]; after 1 hour),lowers blood pressure (decrease from control values) ([2]; after 4 hours)
"Cc1ccc(N(CC2=NCCN2)c2cccc(O)c2)cc1 [phentolamine, reference compound]",> 10 µM,,,,
"NC(=O)c1cc(C(O)CN2CCC(n3c(=O)[nH]c4ccccc43)CC2)ccc1O (stereo not drawn) [Compound 2, 2-hydroxy-5-[1-hydroxy-2-[4-(2-oxo-1-benzimidazolinyl)piperidino]ethyl]benzamide hydrochloride monohydrate]",3.55 µM,6.70,< 4.20,,
"COC(=O)c1cc(C(O)CN2CCC(n3c(=O)[nH]c4ccccc43)CC2)ccc1O (stereo not drawn) [Compound 1, methyl 2-hydroxy-5-[1-hydroxy-2-[4-(2-oxo-1-benzimidazolinyl)piperidino]ethyl]benzoate hydrochloride]",1.95 µM,6.94,5.90,,
"CCNC(=O)c1cc(C(O)CN2CCC(n3c(=O)[nH]c4ccccc43)CC2)ccc1O (stereo not drawn) [Compound 3, 2-hydroxy-5-[1-hydroxy-2-[4-(2-oxo-1-benzimidazolinyl)piperidino]ethyl]-N-ethylbenzamide hydrochloride]",> 4.17 µM,6.63,5.16,22 mm Hg,51 mm Hg
